This note sets out measurements from patent US12172995B2, “Substituted indole and indazole compounds” (BRISTOL-MYERS SQUIBB COMPANY, priority 2018, dated 2024).

Format in all cases: cell-based
For assay [1], the target named is T1, human TLR8 (Homo sapiens, UniProt Q9NR97).
T1 construct: host or cells: HEK-Blue cells
T1 sequence (Q9NR97 27-1041): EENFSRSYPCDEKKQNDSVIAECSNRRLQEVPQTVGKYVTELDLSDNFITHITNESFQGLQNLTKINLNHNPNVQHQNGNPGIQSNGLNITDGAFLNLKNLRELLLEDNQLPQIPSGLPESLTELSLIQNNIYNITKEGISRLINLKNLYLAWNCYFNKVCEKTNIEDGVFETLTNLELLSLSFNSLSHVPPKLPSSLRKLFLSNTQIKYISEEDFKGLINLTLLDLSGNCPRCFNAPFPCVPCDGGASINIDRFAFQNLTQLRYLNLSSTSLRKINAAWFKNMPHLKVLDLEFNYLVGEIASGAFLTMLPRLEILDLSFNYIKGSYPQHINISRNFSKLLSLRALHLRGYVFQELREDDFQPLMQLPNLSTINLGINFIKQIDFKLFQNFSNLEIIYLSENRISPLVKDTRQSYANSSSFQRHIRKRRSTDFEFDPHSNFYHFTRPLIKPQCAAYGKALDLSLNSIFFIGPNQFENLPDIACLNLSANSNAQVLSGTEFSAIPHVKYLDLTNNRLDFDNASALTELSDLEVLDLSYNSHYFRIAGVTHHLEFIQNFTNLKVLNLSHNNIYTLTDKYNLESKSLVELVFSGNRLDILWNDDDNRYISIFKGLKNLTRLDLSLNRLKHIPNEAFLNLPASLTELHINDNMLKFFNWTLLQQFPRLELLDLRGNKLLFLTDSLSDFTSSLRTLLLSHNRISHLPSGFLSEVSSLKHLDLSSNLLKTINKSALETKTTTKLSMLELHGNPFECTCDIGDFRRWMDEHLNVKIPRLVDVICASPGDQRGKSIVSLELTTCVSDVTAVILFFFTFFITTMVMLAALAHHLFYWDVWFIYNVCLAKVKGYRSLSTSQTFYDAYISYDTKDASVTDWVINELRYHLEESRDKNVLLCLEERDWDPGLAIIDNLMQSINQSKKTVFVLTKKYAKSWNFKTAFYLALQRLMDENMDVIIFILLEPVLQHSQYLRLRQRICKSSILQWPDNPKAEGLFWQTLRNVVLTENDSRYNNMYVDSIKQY
As to the kind of experiment: TLR8 inhibition reporter assay (HEK-Blue SEAP). Conditions: HEK-Blue cells overexpressing human TLR8, stimulated with R848 15.9 μM, 22 hour incubation. A digest of the protocol:
(§1)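 HEK-Blue cells overexpressing human TLR7, TLR8 or TLR9 with an NF-κB/AP-1-driven SEAP reporter were pre-treated 30 min at room temperature with compound (0.05 nM to 50 μM), then stimulated with gardiquimod 7.5 μM (TLR7), R848 15.9 μM (TLR8) or ODN2006 5 nM (TLR9). SEAP measured after 22 h at 37° C; inhibition normalized between agonist-plus-DMSO and reference-inhibitor wells.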
A general note: Reporter assays use an easily measured gene product as a stand-in for the process of interest.

The target in assay [2] is T2, human TLR7 (Homo sapiens, UniProt Q9NYK1).
T2 construct: host or cells: HEK-Blue cells
T2 sequence (Q9NYK1 27-1049): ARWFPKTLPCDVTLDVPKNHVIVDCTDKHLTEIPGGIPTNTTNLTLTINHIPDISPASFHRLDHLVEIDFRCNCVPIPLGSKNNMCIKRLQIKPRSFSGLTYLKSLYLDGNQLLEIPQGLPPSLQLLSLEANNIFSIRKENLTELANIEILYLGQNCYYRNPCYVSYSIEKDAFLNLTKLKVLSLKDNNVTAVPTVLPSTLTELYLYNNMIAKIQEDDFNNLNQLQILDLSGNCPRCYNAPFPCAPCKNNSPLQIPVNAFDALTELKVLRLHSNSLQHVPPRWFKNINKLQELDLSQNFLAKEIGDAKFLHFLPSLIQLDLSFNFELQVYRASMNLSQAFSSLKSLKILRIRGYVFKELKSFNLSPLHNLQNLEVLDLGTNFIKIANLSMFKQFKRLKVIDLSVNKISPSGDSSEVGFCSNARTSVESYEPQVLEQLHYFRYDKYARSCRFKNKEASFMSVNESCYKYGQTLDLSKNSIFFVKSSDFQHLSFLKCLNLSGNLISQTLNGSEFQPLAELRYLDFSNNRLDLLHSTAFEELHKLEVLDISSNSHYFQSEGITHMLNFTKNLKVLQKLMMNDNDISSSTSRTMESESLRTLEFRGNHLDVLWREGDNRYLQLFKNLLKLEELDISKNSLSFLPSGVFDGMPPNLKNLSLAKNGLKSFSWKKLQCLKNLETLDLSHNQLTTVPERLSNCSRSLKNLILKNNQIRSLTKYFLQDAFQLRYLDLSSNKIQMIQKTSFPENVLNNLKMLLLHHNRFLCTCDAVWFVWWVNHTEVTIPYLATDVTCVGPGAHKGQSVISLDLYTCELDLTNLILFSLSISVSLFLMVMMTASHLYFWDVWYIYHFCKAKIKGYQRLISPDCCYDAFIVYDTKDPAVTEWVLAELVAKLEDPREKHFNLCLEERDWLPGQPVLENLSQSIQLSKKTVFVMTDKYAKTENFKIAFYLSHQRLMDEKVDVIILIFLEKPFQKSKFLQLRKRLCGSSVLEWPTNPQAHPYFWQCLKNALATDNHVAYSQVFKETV
Kind of assay: TLR7 inhibition reporter assay (HEK-Blue SEAP). Conditions: HEK-Blue cells overexpressing human TLR7, stimulated with gardiquimod 7.5 μM, 22 hour incubation. A digest of the protocol:
as §1

The target of assay [3] is T3, human TLR9 (Homo sapiens, UniProt Q9NR96).
T3 construct: host or cells: HEK-Blue cells
T3 sequence (Q9NR96 26-1032): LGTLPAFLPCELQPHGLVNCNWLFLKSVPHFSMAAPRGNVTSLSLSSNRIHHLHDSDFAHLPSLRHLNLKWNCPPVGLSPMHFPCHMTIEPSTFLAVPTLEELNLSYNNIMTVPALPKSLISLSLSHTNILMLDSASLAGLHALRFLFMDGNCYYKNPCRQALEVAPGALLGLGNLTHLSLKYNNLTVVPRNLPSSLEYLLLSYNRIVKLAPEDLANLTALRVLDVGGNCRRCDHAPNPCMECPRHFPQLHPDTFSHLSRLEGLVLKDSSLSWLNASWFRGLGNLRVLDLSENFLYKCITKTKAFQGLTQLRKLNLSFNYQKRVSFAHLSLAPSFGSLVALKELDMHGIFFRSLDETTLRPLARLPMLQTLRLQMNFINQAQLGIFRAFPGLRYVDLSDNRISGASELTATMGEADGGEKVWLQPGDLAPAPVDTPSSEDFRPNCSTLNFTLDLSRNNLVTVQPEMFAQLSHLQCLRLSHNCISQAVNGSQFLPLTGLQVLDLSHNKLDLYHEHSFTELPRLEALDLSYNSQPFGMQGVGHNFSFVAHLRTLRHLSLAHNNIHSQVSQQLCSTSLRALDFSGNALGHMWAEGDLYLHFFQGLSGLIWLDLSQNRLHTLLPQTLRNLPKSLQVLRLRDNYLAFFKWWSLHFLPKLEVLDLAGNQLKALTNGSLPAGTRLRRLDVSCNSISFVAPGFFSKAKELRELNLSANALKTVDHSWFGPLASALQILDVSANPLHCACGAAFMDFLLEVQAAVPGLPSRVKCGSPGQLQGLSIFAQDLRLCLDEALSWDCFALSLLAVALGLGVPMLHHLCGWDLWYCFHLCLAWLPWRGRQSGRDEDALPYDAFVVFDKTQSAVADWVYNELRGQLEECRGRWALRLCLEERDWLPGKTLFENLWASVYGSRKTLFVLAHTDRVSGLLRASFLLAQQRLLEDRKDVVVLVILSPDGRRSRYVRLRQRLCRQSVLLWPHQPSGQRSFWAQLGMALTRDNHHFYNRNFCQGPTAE
As to the kind of experiment: TLR9 inhibition reporter assay (HEK-Blue SEAP). Conditions: HEK-Blue cells overexpressing human TLR9, stimulated with ODN2006 5 nM, 22 hour incubation. The gist of the method: as §1

In general, IC50 refers to the point on the concentration scale where inhibition reaches its midpoint. Regarding `CCc1cc(-c2cc(C)c3ncnn3c2)cc2[nH]nc(C3CCN(CC(=O)N(C)C)CC3)c12` [Example 8, 2-(4-(4-ethyl-6-(8-methyl-[1,2,4]triazolo[1,5-a]pyridin-6-yl)-1H-indazol-3-yl)piperidin-1-yl)-N,N-dimethylacetamide], the results for the IC50 in assay [1], in assay [2] and in assay [3] were 4.5 nM, 4 nM and 6070 nM, respectively.

As to `CCCN1CCC(c2n[nH]c3cc(-c4cc(C)c5ncnn5c4)c(C(C)C)cc23)CC1` [Example 9, 6-(5-isopropyl-3-(1-propylpiperidin-4-yl)-1H-indazol-6-yl)-8-methyl-[1,2,4]triazolo[1,5-a] pyridine], the IC50 in assay [1] came out at 0.1 nM; in assay [2] it was 0.5 nM; in assay [3], 6200 nM.

For the compound `Cc1cc2c(CC3CCNCC3)n[nH]c2cc1-c1cc(C)c2ncnn2c1` [Example 10, 8-methyl-6-(5-methyl-3-(piperidin-4-ylmethyl)-1H-indazol-6-yl)-[1,2,4]triazolo[1,5-a]pyridine], the IC50 in assay [1] is 3.8 nM; in assay [2] it was 68.9 nM; in assay [3], 1010 nM.

Consider `COc1cc(-c2ccc3c(C4CCNCC4)c[nH]c3c2)cn2ncnc12` [Example 11, 8-methoxy-6-(3-(piperidin-4-yl)-1H-indol-6-yl)-[1,2,4]triazolo[1,5-a]pyridine], for which the IC50 came out at 245 nM in assay [1], 64.4 nM in assay [2] and 363 nM in assay [3].

`Cc1cc(-c2ccc3c(C4CCNCC4)c[nH]c3c2)cn2ncnc12` [Example 12, 8-methyl-6-(3-(piperidin-4-yl)-1H-indol-6-yl)-[1,2,4]triazolo[1,5-a]pyridine]: the values for the IC50 in assay [1], in assay [2] and in assay [3] were 31.2 nM, 16.9 nM and 192 nM, respectively.

Consider `Cc1cc(-c2ccc3c(CCNC4CCNCC4)c[nH]c3c2)cn2ncnc12` [Example 13, N-(2-(6-(8-methyl-[1,2,4]triazolo[1,5-a]pyridin-6-yl)-1H-indol-3-yl)ethyl)piperidin-4-amine], for which the IC50 in assay [1] was 269 nM; in assay [2], 1690 nM; in assay [3], 605 nM.

As to `Cc1cc(-c2cc(C)c3ncnn3c2)cc2[nH]cc(C3CCNCC3)c12` [Example 16, 8-methyl-6-(4-methyl-3-(piperidin-4-yl)-1H-indol-6-yl)-[1,2,4]triazolo[1,5-a]pyridine], the IC50 in assay [1] turned out to be 35.2 nM; in assay [2], 3.3 nM; in assay [3], 1420 nM.

Turning to `Cc1cc(-c2ccc3c(C4CCNCC4)n[nH]c3c2)cn2ncnc12` [Example 17, 8-methyl-6-(3-(piperidin-4-yl)-1H-indazol-6-yl)-[1,2,4]triazolo[1,5-a]pyridine], the values for the IC50 in assay [1], in assay [2] and in assay [3] were 328 nM, 388 nM and 3190 nM, respectively.

For the compound `Cc1cc2c(C3CCNCC3)n[nH]c2cc1-c1cc(C)c2ncnn2c1` [Example 18, 8-methyl-6-(5-methyl-3-(piperidin-4-yl)-1H-indazol-6-yl)-[1,2,4]triazolo[1,5-a]pyridine], the IC50 stood at 3.3 nM in assay [1], 12.9 nM in assay [2] and 1500 nM in assay [3].

Take `COc1cc2c(C3CCNCC3)n[nH]c2cc1-c1cc(C)c2ncnn2c1` [Example 19, 6-(5-methoxy-3-(piperidin-4-yl)-1H-indazol-6-yl)-8-methyl-[1,2,4]triazolo[1,5-a]pyridine]: the figures for the IC50 in assay [1], in assay [2] and in assay [3] were 11.2 nM, 31.8 nM and 1780 nM, respectively.

Turning to `Cc1cc2c(C3CCN(C(=O)CN(C)C)CC3)n[nH]c2cc1-c1cc(C)c2ncnn2c1` [Example 20, 2-(dimethylamino)-1-(4-(5-methyl-6-(8-methyl-[1,2,4]triazolo[1,5-a]pyridin-6-yl)-1H-indazol-3-yl)piperidin-1-yl)ethan-1-one], the IC50 in assay [1] stood at 3.8 nM; in assay [2], 24.6 nM; in assay [3], 4420 nM.

For the compound `Cc1cc2c(C3CCN(C4CCOCC4)CC3)n[nH]c2cc1-c1cc(C)c2ncnn2c1` [Example 21, 8-methyl-6-(5-methyl-3-(1-(tetrahydro-2H-pyran-4-yl)piperidin-4-yl)-1H-indazol-6-yl)-[1,2,4]triazolo[1,5-a]pyridine], the results for the IC50 in assay [1], in assay [2] and in assay [3] were 0.7 nM, 26.2 nM and 4540 nM, respectively.

In the case of `CCCN1CCC(c2n[nH]c3cc(-c4cc(C)c5ncnn5c4)c(C)cc23)CC1` [Example 22, 8-methyl-6-(5-methyl-3-(1-propylpiperidin-4-yl)-1H-indazol-6-yl)-[1,2,4]triazolo[1,5-a]pyridine], the figures for the IC50 in assay [1], in assay [2] and in assay [3] were 0.8 nM, 17.7 nM and 3130 nM, respectively.

For the compound `Cc1cc2c(C3CCN(CC(=O)N(C)C)CC3)n[nH]c2cc1-c1cc(C)c2ncnn2c1` [Example 23, N,N-dimethyl-2-(4-(5-methyl-6-(8-methyl-[1,2,4]triazolo[1,5-a]pyridin-6-yl)-1H-indazol-3-yl)piperidin-1-yl)acetamide], the IC50 worked out at 2.9 nM in assay [1], 43.4 nM in assay [2] and 6630 nM in assay [3].
